Key:
[1] = system: cells L929; assay: Cytotoxicity experiment, extraction method, relative growth rate of cells; details: absorbance, higher RCR = lower toxicity, crosslinker compounds
[2] = system: cells L929; assay: Median inhibitory concentration (IC50) of crosslinker compounds in cells L929; format: cell-based; details: Mus musculus, L929, read-out: IC50 (median inhibitory concentration)
Description: A cytotoxicity experiment is achieved through detecting the propagation rate of cells referring to standards for biological evaluation-in vitro cell toxicity test of medical instruments. In the experiment, an extraction method is adopted, a cell toxicity test is performed by adopting cells L929, a relative growth rate (RCR) of the cells is calculated through assaying the absorbance value by using an enzyme-linked immunoassay instrument, and the higher the RCR, the better the biocompatibility and the lower the toxicity.

C(COCCOCC1CO1)OCCOCCOCC1CO1 (stereo not drawn) [Ia, tetraethylene glycol diglycidyl ether]
RCR (relative growth rate of the cells), polyglycol diglycidyl ether crosslinkers [1]: 62%
IC50 [2]: 127 µM

C(COCCOCCOCCOCCOCCOCCOCCOCCOCCOCCOCCOCC1CO1)OCCOCCOCCOCCOCCOCCOCCOCCOCCOCCOCCOCCOCC1CO1 (stereo not drawn) [Ic, tetracosaethylene glycol diglycidyl ether]
RCR (relative growth rate of the cells), polyglycol diglycidyl ether crosslinkers [1]: 89%
IC50 [2]: 1880 µM

C(COCCOCCOCCOCCOCCOCC1CO1)OCCOCCOCCOCCOCCOCCOCC1CO1 (stereo not drawn) [Ib, dodecaethylene glycol diglycidyl ether]
RCR (relative growth rate of the cells), polyglycol diglycidyl ether crosslinkers [1]: 89%
IC50 [2]: 2300 µM

— US11191870B2, “Gel of sodium hyaluronate cross-linked by polyethylene glycol epoxy derivative for injection and preparation method thereof” (JENKEM TECHNOLOGY CO., LTD. (BEIJING), priority 2016, dated 2021)
